Laboratory results from patent publication US20100137313A1 (ASTRAZENECA AB, priority 2008, published 2010).

Target: S. pneumoniae Topoisomerase IV ATPase (ParE) (Streptococcus pneumoniae serotype 4, UniProt Q59961)
Assay: S. pneumoniae Topoisomerase IV ATPase inhibition
Type: biochemical
Conditions: values marked * are an average of two or more data points, read-out: % Inh (13 μM) of S. pneumoniae Topoisomerase IV ATPase
In short: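 Malachite green/ammonium molybdate phosphate detection, A650. 1.25 nM ParE, 160 μM ATP, sheared salmon sperm DNA 5 μg/ml, 20 mM Tris pH 8.0, 8.0 mM MgCl2. Controls: 2% DMSO = 0%, 20 μM EDTA = 100% inhibition; IC50 over 10 concentrations.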

Chain of S. pneumoniae Topoisomerase IV ATPase (ParE) (Q59961 whole entry): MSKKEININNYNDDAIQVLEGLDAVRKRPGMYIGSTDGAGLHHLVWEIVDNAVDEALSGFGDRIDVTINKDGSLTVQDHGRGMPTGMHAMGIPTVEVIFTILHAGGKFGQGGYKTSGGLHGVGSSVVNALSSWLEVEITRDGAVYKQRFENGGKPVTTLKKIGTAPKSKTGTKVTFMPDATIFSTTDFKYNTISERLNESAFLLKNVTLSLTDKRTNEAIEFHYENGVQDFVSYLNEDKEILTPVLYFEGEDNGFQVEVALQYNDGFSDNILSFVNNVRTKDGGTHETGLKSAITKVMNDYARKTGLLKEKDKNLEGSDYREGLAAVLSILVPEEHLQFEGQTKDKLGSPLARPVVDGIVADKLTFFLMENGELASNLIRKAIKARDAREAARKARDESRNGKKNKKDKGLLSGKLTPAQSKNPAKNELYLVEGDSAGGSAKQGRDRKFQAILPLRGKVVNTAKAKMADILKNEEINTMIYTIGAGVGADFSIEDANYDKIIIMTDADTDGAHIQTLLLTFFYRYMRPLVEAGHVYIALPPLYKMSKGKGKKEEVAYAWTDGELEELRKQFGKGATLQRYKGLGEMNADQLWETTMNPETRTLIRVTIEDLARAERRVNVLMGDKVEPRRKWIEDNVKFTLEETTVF

| SMILES | inhibition at 13 µM |
| --- | --- |
| Cc1cc(C)cc(Nc2ncc(-c3cccc(/C=C/C(=O)O)c3)c(-n3ccc(C(F)(F)F)n3)n2)c1 [Example 617, (2E)-3-(3-{2-[(3,5-dimethylphenyl)amino]-4-[3-(trifluoromethyl)-1H-pyrazol-1-yl]pyrimidin-5-yl}phenyl)prop-2-enoic acid] | 100% |
| Cc1cc(C)cc(Nc2ncc(-c3cccc(/C=C/C(=O)O)c3)c(-n3nc(C(F)(F)F)cc3C)n2)c1 [Example 618, (2E)-3-(3-{2-[(3,5-dimethylphenyl)amino]-4-[5-methyl-3-(trifluoromethyl)-1H-pyrazol-1-yl]pyrimidin-5-yl}phenyl)prop-2-enoic acid] | 98% |
| O=C(O)/C=C/c1cccc(-c2cnc(Nc3cc(F)cc(F)c3)nc2-n2ccc(C(F)(F)F)n2)c1 [Example 619, (2E)-3-(3-{2-[(3,5-difluorophenyl)amino]-4-[3-(trifluoromethyl)-1H-pyrazol-1-yl]pyrimidin-5-yl}phenyl)prop-2-enoic acid] | 100% |
| Cc1cc(C(F)(F)F)nn1-c1nc(Nc2cc(F)cc(F)c2)ncc1-c1cccc(/C=C/C(=O)O)c1 [Example 620, (2E)-3-(3-{2-[(3,5-difluorophenyl)amino]-4-[5-methyl-3-(trifluoromethyl)-1H-pyrazol-1-yl]pyrimidin-5-yl}phenyl)prop-2-enoic acid] | 96% |
| O=C(O)/C=C/c1cccc(-c2cnc(Nc3cccc(F)c3)nc2-n2ccc(C(F)(F)F)n2)c1 [Example 621, (2E)-3-(3-{2-[(3-fluorophenyl)amino]-4-[3-(trifluoromethyl)-1H-pyrazol-1-yl]pyrimidin-5-yl}phenyl)prop-2-enoic acid] | 100% |
| Cc1cc(C(F)(F)F)nn1-c1nc(Nc2cccc(F)c2)ncc1-c1cccc(/C=C/C(=O)O)c1 [Example 622, (2E)-3-(3-{2-[(3-fluorophenyl)amino]-4-[5-methyl-3-(trifluoromethyl)-1H-pyrazol-1-yl]pyrimidin-5-yl}phenyl)prop-2-enoic acid] | 98% |
| CS(=O)(=O)c1cccc(Nc2ncc(-c3cccc(/C=C/C(=O)O)c3)c(-n3ccc(C(F)(F)F)n3)n2)c1 [Example 623, (2E)-3-[3-(2-{[3-(methylsulfonyl)phenyl]amino}-4-[3-(trifluoromethyl)-1H-pyrazol-1-yl]pyrimidin-5-yl)phenyl]prop-2-enoic acid] | 100% |
| Cc1cc(C(F)(F)F)nn1-c1nc(Nc2cccc(S(C)(=O)=O)c2)ncc1-c1cccc(/C=C/C(=O)O)c1 [Example 624, (2E)-3-[3-(2-{[3-(methylsulfonyl)phenyl]amino}-4-[5-methyl-3-(trifluoromethyl)-1H-pyrazol-1-yl]pyrimidin-5-yl)phenyl]prop-2-enoic acid] | 89% |
| COc1cc(Nc2ncc(-c3cncc(C(=O)O)c3)c(-n3ccc(C(F)(F)F)n3)n2)cc(OC)c1 [Example 635, 5-{2-[(3,5-Dimethoxyphenyl)amino]-4-[3-(trifluoromethyl)-1H-pyrazol-1-yl]pyrimidin-5-yl}pyridine-3-carboxylic acid] | 100% |
| COc1cc(Nc2ncc(-c3cncc(C(=O)O)c3)c(-n3nc(C(F)(F)F)cc3C)n2)cc(OC)c1 [Example 636, 5-{2-[(3,5-dimethoxyphenyl)amino]-4-[5-methyl-3-(trifluoromethyl)-1H-pyrazol-1-yl]pyrimidin-5-yl}pyridin-3-carboxylic acid] | 100% |
| Cc1cc(C)cc(Nc2ncc(-c3cncc(C(=O)O)c3)c(-n3ccc(C(F)(F)F)n3)n2)c1 [Example 637, 5-{2-[(3,5-dimethylphenyl)amino]-4-[3-(trifluoromethyl)-1H-pyrazol-1-yl]pyrimidin-5-yl}pyridine-3-carboxylic acid] | 100% |
| Cc1cc(C)cc(Nc2ncc(-c3cncc(C(=O)O)c3)c(-n3nc(C(F)(F)F)cc3C)n2)c1 [Example 638, 5-{2-[(3,5-dimethylphenyl)amino]-4-[5-methyl-3-(trifluoromethyl)-1H-pyrazol-1-yl]pyrimidin-5-yl}pyridine-3-carboxylic acid] | 100% |
| O=C(O)c1cncc(-c2cnc(Nc3cc(F)cc(F)c3)nc2-n2ccc(C(F)(F)F)n2)c1 [Example 639, 5-{2-[(3,5-difluorophenyl)amino]-4-[3-(trifluoromethyl)-1H-pyrazol-1-yl]pyrimidin-5-yl}pyridine-3-carboxylic acid] | 100% |
| Cc1cc(C(F)(F)F)nn1-c1nc(Nc2cc(F)cc(F)c2)ncc1-c1cncc(C(=O)O)c1 [Example 640, 5-{2-[(3,5-difluorophenyl)amino]-4-[5-methyl-3-(trifluoromethyl)-1H-pyrazol-1-yl]pyrimidin-5-yl}pyridine-3-carboxylic acid] | 100% |
| O=C(O)c1cncc(-c2cnc(Nc3cccc(F)c3)nc2-n2ccc(C(F)(F)F)n2)c1 [Example 641, 5-{2-[(3-fluorophenyl)amino]-4-[3-(trifluoromethyl)-1H-pyrazol-1-yl]pyrimidin-5-yl}pyridine-3-carboxylic acid] | 100% |
| Cc1cc(C(F)(F)F)nn1-c1nc(Nc2cccc(F)c2)ncc1-c1cncc(C(=O)O)c1 [Example 642, 5-{2-[(3-fluorophenyl)amino]-4-[5-methyl-3-(trifluoromethyl)-1H-pyrazol-1-yl]pyrimidin-5-yl}pyridine-3-carboxylic acid] | 100% |
| CS(=O)(=O)c1cccc(Nc2ncc(-c3cncc(C(=O)O)c3)c(-n3ccc(C(F)(F)F)n3)n2)c1 [Example 643, 5-(2-{[3-(methylsulfonyl)phenyl]amino}-4-[3-(trifluoromethyl)-1H-pyrazol-1-yl]pyrimidin-5-yl)pyridine-3-carboxylic acid] | 100% |
| Cc1cc(C(F)(F)F)nn1-c1nc(Nc2cccc(S(C)(=O)=O)c2)ncc1-c1cncc(C(=O)O)c1 [Example 644, 5-(2-{[3-(methylsulfonyl)phenyl]amino}-4-[5-methyl-3-(trifluoromethyl)-1H-pyrazol-1-yl]pyrimidin-5-yl)pyridine-3-carboxylic acid] | 84% |
| COc1ncc(-c2cnc(Nc3cc(C)cc(C)c3)nc2-n2nc(C(F)(F)F)cc2C)cc1C(=O)O [Example 646, 5-{2-[(3,5-dimethylphenyl)amino]-4-[5-methyl-3-(trifluoromethyl)-1H-pyrazol-1-yl]pyrimidin-5-yl}-2-methoxypyridine-3-carboxylic acid] | 100% |
| COc1ncc(-c2cnc(Nc3cc(C)cc(C)c3)nc2-n2ccc(C(F)(F)F)n2)cc1C(=O)O [Example 648, 5-{2-[(3,5-dimethylphenyl)amino]-4-[3-(trifluoromethyl)-1H-pyrazol-1-yl]pyrimidin-5-yl}-2-methoxypyridine-3-carboxylic acid] | 100% |
| COc1cc(Nc2ncc(-c3cccc(/C=C/C(=O)O)c3)c(-n3nc(C(F)(F)F)cc3C)n2)cc(S(C)(=O)=O)c1 [Example 653] | 86% |
| O=C(O)/C=C/c1cccc(-c2cnc(Nc3ccc4c(c3)CCC4)nc2-n2ccc(C(F)(F)F)n2)c1 [Example 655, (2E)-3-(3-{2-(2,3-dihydro-1H-inden-5-ylamino)-4-[3-(trifluoromethyl)-1H-pyrazol-1-yl]pyrimidin-5-yl}phenyl)prop-2-enoic acid] | 89% |
| Cc1cc(C(F)(F)F)nn1-c1nc(Nc2ccc3c(c2)CCC3)ncc1-c1cccc(/C=C/C(=O)O)c1 [Example 656, (2E)-3-(3-{2-(2,3-dihydro-1H-inden-5-ylamino)-4-[5-methyl-3-(trifluoromethyl)-1H-pyrazol-1-yl]pyrimidin-5-yl}phenyl)prop-2-enoic acid] | 78% |
| O=C(O)/C=C/c1cccc(-c2cnc(Nc3ccc4c(c3)OCO4)nc2-n2ccc(C(F)(F)F)n2)c1 [Example 657, (2E)-3-(3-{2-(1,3-benzodioxol-5-ylamino)-4-[3-(trifluoromethyl)-1H-pyrazol-1-yl]pyrimidin-5-yl}phenyl)prop-2-enoic acid] | 100% |
| Cc1cc(C(F)(F)F)nn1-c1nc(Nc2ccc3c(c2)OCO3)ncc1-c1cccc(/C=C/C(=O)O)c1 [Example 658, (2E)-3-(3-{2-(1,3-benzodioxol-5-ylamino)-4-[5-methyl-3-(trifluoromethyl)-1H-pyrazol-1-yl]pyrimidin-5-yl}phenyl)prop-2-enoic acid] | 96% |
| COc1cc(Nc2ncc(-c3cccc(/C=C/C(=O)O)c3)c(-n3ccc(C(F)(F)F)n3)n2)cc(S(C)(=O)=O)c1 [Example 659, (2E)-3-[3-(2-{[3-methoxy-5-(methylsulfonyl)phenyl]amino}-4-[3-(trifluoromethyl)-1H-pyrazol-1-yl]pyrimidin-5-yl)phenyl]prop-2-enoic acid] | 100% |
| Cc1ccc(S(=O)(=O)n2ccc3cc(Nc4ncc(-c5cncc(C(=O)O)c5)c(-n5nc(C(F)(F)F)cc5C)n4)ccc32)cc1 [Example 667, 5-{2-({1-[(4-methylphenyl)sulfonyl]-1H-indol-5-yl}amino)-4-[5-methyl-3-(trifluoromethyl)-1H-pyrazol-1-yl]pyrimidin-5-yl}pyridine-3-carboxylic acid] | 56% |
| O=C(O)c1cncc(-c2cnc(Nc3ccc4c(c3)CCC4)nc2-n2ccc(C(F)(F)F)n2)c1 [Example 668, 5-{2-(2,3-dihydro-1H-inden-5-ylamino)-4-[3-(trifluoromethyl)-1H-pyrazol-1-yl]pyrimidin-5-yl}pyridine-3-carboxylic acid] | 85% |
| Cc1cc(C(F)(F)F)nn1-c1nc(Nc2ccc3c(c2)CCC3)ncc1-c1cncc(C(=O)O)c1 [Example 669, 5-{2-(2,3-dihydro-1H-inden-5-ylamino)-4-[5-methyl-3-(trifluoromethyl)-1H-pyrazol-1-yl]pyrimidin-5-yl}pyridine-3-carboxylic acid] | 68% |
